Laboratory results reported in US20030108893A1, “Method for establishing neurogically relevant properties of a material” (priority 1999, published 2003).

Assays:
threadworm (C. elegans) [1] = assay: Neurotoxic substance administered to nematodes in liquid medium; behavior or morphology phenotype observed; type: in vivo, Caenorhabditis elegans; conditions: for behavioral anomalies or changes in morphology after administration of neurotoxic compound: nematodes (threadworms), general finding
Description: The response to the administration of neurotoxic substances which act on the central nervous system was investigated in nematodes of the genus Caenorhabditis and, in particular, in Caenorhabditis elegans. In this threadworm, a characteristic phenotype, which is expressed, for example, in movement disturbances, a reduced number of progeny or morphological changes,; is observed both in the larval stages L1, L2, L3 and L4 (see “The Nematode Caenorhabditis elegans”; Wood et al., Cold Spring Harbor Laboratory, 1988) and in the adult stage following incubation with a neurotoxic substance. This can be ascertained by observing the phenotype microscopically, by determining the number of progeny per animal and time period or by detecting nerve cells which have been labeled with particular dyes (e.g. GFP fusion proteins) and whose color changes after they have been acted upon by a neurotoxic substance.
(§1) Per assay, about 100 threadworm (C. elegans) test animals at a defined stage of development (e.g. L1 larval stage) were incubated in liquid medium at constant temperature (e.g. 20° C.). […]
This can be expressed in severe movement disturbances, a reduced number of progeny or morphological changes.

threadworm (C. elegans) [2] = assay: Preincubation with test material before MPTP; reversion or prevention of the MPTP phenotype; type: in vivo, Caenorhabditis elegans; conditions: 100 C. elegans; three days of preincubation with L-DOPA, MPTP added on the third day; observed on day 6 (Figure B)
Description: It is possible to expose the nematodes to the materials to be investigated in a wide variety of ways. For example, it is possible to culture the animals in Petri dishes containing an agar which contains neurotoxic substances, on the one hand, and the substances of interest on the other. However, it is also possible to bathe the animals, in a simple manner, in the materials to be investigated. As well as being particularly simple, this variant also makes it possible to standardize the concentrations more easily and to achieve a higher throughput in a screening system. For an investigation, use is made of populations of the animals, which populations are then incubated with different solutions of the materials and at different concentrations. […] The observation, namely the reversion or prevention of the behavioral anomaly or the morphological change following neurotoxin treatment, makes it possible to draw a conclusion with regard to the possible activity and site of action of the material whose suitability as a drug is under investigation.
as §1

Row | Compound | behavioral anomalies or changes in morphology after administration of neurotoxic compound (threadworm (C. elegans) [1]) | expression of the phenotype brought about by MPTP after incubation with test material (threadworm (C. elegans) [2]) | characteristic phenotype (severe movement disturbances, reduced number of progeny or morphological changes) (threadworm (C. elegans) [1]; about 100 C. elegans, e.g. L1 larval stage, liquid medium, e.g. 20° C., MPTP 16 to 500 μg/ml, observed e.g. on day 6 (Figure A))
1 | NCCc1cc(O)c(O)cc1O [6-OHDA, 6-hydroxy-dopamine] | exhibit behavioral anomalies or changes in their morphology | – | –
2 | N[C@@H](Cc1ccc(O)c(O)c1)C(=O)O [L-DOPA, L-3,4-dihydroxyphenylalanine] | – | the phenotype which is brought about by MPTP is not expressed | –
3 | CN1CC=C(c2ccccc2)CC1 [MPTP, 1-methyl-4-phenyl-1,2,3,6-tetrahydropyridine] | exhibit behavioral anomalies or changes in their morphology | – | a characteristic phenotype was observed
